Consider two compounds from patent US20060234237A1 (priority 2004, published 2006).

One test has as its system CCD_33C0. Kind of test: In vitro cytotoxicity MTS assay. The format is cell-based. As to conditions: Homo sapiens, 72 hours, mean of 2 to 5 determinations, asterisk = sensitive.
The test system of the next test is LOVO. Put plainly: In vitro cytotoxicity MTS assay. It is filed as cell-based. To be noted: Homo sapiens, 72 hours, mean of 2 to 5 determinations, asterisk = sensitive. Background: Formazan colour is commonly taken as a measure of viable cells.
The subject of another test is LS174T. Kind of test: In vitro cytotoxicity MTS assay. The format is cell-based. To be noted: Homo sapiens, 72 hours, mean of 2 to 5 determinations, asterisk = sensitive.
For a further test, the system named is Caco2. Kind of test: In vitro cytotoxicity MTS assay. It is filed as cell-based. As to conditions: Homo sapiens, Caco-2, 72 hours, mean of 2 to 5 determinations, asterisk = sensitive.
A further test relates to SW403. Kind of test: In vitro cytotoxicity MTS assay. The format is cell-based. As to conditions: Homo sapiens, SW-403, 72 hours, mean of 2 to 5 determinations, asterisk = sensitive.
The test system of a further test is CCD18Co. Put plainly: In vitro cytotoxicity MTS assay. The format is cell-based. To be noted: Homo sapiens, CCD-18Co, 72 hours, mean of 2 to 5 determinations.
The subject of the next test is SW837. Kind of test: In vitro cytotoxicity MTS assay. The format is cell-based. As to conditions: Homo sapiens, 72 hours, mean of 2 to 5 determinations.
In a further test the test system is Sk-Co-1. Put plainly: In vitro cytotoxicity MTS assay. As to conditions: Homo sapiens, 72 hours, mean of 2 to 5 determinations. It is filed as cell-based.
For a further test, the system named is MIP. Put plainly: In vitro cytotoxicity MTS assay. It is filed as cell-based. To be noted: Homo sapiens, 72 hours, mean of 2 to 5 determinations.
A further test has as its system SW1417. Kind of test: In vitro cytotoxicity MTS assay. It is filed as cell-based. To be noted: Homo sapiens, 72 hours, mean of 2 to 5 determinations.
The next test concerns HT-29. Put plainly: In vitro cytotoxicity MTS assay. The format is cell-based. To be noted: Homo sapiens, 72 hours, mean of 2 to 5 determinations.
The subject of another test is T84. Put plainly: In vitro cytotoxicity MTS assay. As to conditions: Homo sapiens, 72 hours, mean of 2 to 5 determinations. It is filed as cell-based.
The test system of a further test is CX-1. Put plainly: In vitro cytotoxicity MTS assay. It is filed as cell-based. As to conditions: Homo sapiens, 72 hours, mean of 2 to 5 determinations.
The test system of the next test is Colo-205. Put plainly: In vitro cytotoxicity MTS assay. It is filed as cell-based. As to conditions: Homo sapiens, 72 hours, mean of 2 to 5 determinations.
A further test relates to Colo-201. Kind of test: In vitro cytotoxicity MTS assay. The format is cell-based. To be noted: Homo sapiens, 72 hours, mean of 2 to 5 determinations.
The next test deals with Colo320HSR. Put plainly: In vitro cytotoxicity MTS assay. The format is cell-based. As to conditions: Homo sapiens, COLO-320-HSR, 72 hours, mean of 2 to 5 determinations.
The next test deals with HCT8. Kind of test: In vitro cytotoxicity MTS assay. It is filed as cell-based. To be noted: Homo sapiens, HCT-8, 72 hours, mean of 2 to 5 determinations.
In another test the test system is HCT116. Kind of test: In vitro cytotoxicity MTS assay. The format is cell-based. As to conditions: Homo sapiens, HCT-116, 72 hours, mean of 2 to 5 determinations.
The subject of another test is SW620. Kind of test: In vitro cytotoxicity MTS assay. The format is cell-based. To be noted: Homo sapiens, SW-620, 72 hours, mean of 2 to 5 determinations.
The subject of a further test is HCT116S542. Kind of test: In vitro cytotoxicity MTS assay. To be noted: Homo sapiens, 72 hours, mean of 2 to 5 determinations. It is filed as cell-based.
A further test deals with Colo320DM. Put plainly: In vitro cytotoxicity MTS assay.
The test system of a further test is SW480. Put plainly: In vitro cytotoxicity MTS assay.
Test [1] concerns CACO2 colon cancer cell line. As to conditions: serum starved, 20 ng/ml EGF, 0.5, 6 and 18 hours, vs media alone. How it is done:
(§1) Control cells were treated with media alone. The expression profiling was performed, and data was analyzed using GeneChip® Expression Analysis software MAS 5.0 (Affymetrix, Santa Clara, Calif.).
(§2) The colon cells were grown using standard cell culture conditions: RPMI 1640 supplemented to contain 10% fetal bovine serum, 100 IU/ml penicillin, […] streptomycin, 2 mM L-glutamine and 10 mM Hepes (all from GibcoBRL, Rockville, Md.). RNA was isolated from 50-70% confluent cells or drug-treated cells using the RNeasy™ kits commercially available from Qiagen (Valencia, Calif.). Quality of the RNA was checked by measuring the 28s:18s ribosomal RNA ratio using Agilent 2100 bioanalyzer (Agilent, Technologies, Rockville, Md.). Concentration of total RNA was determined spectrophotometrically. 10 μg of total RNA from each cell line was used to prepare biotinylated probe according to the Affymetrix Genechip® Expression Analysis Technical Manual, 2001. Targets were hybridized to Affymetrix high density oligonucleotide array human HG-U133 set chips (Affymetrix, Santa Clara, Calif.). Arrays were then washed, and stained using the GeneChip Fluidics station according to the manufacture's instructions. The HG-U133 set consisting of two GeneChip® arrays contains nearly 45,000 probe sets representing more than 39,000 transcripts derived from approximately 33,000 well-substantiated human genes.
(§3) For the EGF induction studies, the colon cell line CACO2 and the lung cancer H292 cell line were washed 2×PBS, and the media was changed to RPMI without serum. The next day the cells were treated with 20 ng/ml EGF, and eventually lysed for RNA isolation 0.5, 6 and 18 hours post treatment. Gene expression was profiled as described below.

The test system of test [2] is H292 lung cancer cell line. To be noted: serum starved, 20 ng/ml EGF, 0.5, 6 and 18 hours, vs media alone. As for the experimental part: as §1, §2, §3

Counter-ions that a name gives are not always drawn. A value given as a limit tells only on which side of the number the result lay.

What is called IC50 is the midpoint of a concentration-inhibition curve.

Description for Colo320DM: (§4) The IC50 for each cell line was assessed by MTS assays. The average IC50 values along with standard deviations were calculated from two to five individual determinations for each cell line. […] The IC50 unit is μM.
(§5) Cytotoxicity was assessed in cells by MTS (3-(4,5-dimethylthiazol-2-yl)-5-(3-carboxymethoxyphenyl)-2-(4-sulphenyl)-2H-tetrazolium, inner salt) assay (T. L. Riss et al., 1992, Mol. Biol. Cell, 3 (Suppl.): 184a).
(§6) To carry out the assays, the colon cells were plated at 4,000 cell/well in 96 well microtiter plates and 24 hours later serial diluted drugs were added. […] The cells were incubated at 37° C. for 72 hours at which time the tetrazolium dye MTS (333 μg/ml final concentration) in combination with the electron coupling agent phenazine methosulfate (25 μM final concentration) was added. A dehydrogenase enzyme in live cells reduces the MTS to a form that absorbs light at 492 nm that can be quantified spectrophotometrically. The greater the absorbency, the greater the number of live cells. The results were expressed as an IC50, which is the drug concentration required to inhibit cell proliferation (i.e., absorbance at 450 mm) to 50% of that of untreated control cells. The mean IC50 and standard deviation (SD) from multiple tests for each cell line were calculated.
Description for SW480: as §4, §5, §6

In the case of `C#Cc1cccc(Nc2ncnc3cc(OCCOC)c(OCCOC)cc23)c1` [BMS-461453, erlotinib HCl], the IC50 stood at 2 µM in the test on CCD_33C0; 2.3 µM in the test on LOVO; 3.5 µM with LS174T; 5.5 µM in the test with Caco2; 5.7 µM in the test on SW403; 7.1 µM in the test on CCD18Co. Moreover, the IC50 with SW837 is 7.2 µM; with Sk-Co-1, 9 µM; in the test with MIP it was 9.7 µM; with SW1417 it was above 10 µM; in the test on HT-29, above 10 µM; in the test with T84, above 10 µM. Further, the IC50 in the test on CX-1, in the test with Colo-205, with Colo-201, in the test with Colo320HSR, in the test on HCT8 and with HCT116 was above 10 µM throughout. Besides, the IC50 in the test with SW620 is above 10 µM; in the test with HCT116S542 it was above 10 µM; with Colo320DM (Homo sapiens, COLO 320DM, 72 h), above 10 µM; in the test on SW480 (Homo sapiens, SW480, 72 h) it was above 10 µM. For the same compound, the “Sensitivity of cell line to the EGFR inhibitor” value is listed as “resistant” with Colo320DM (COLO320_DM, does not express EGFR) and “insensitive” with SW480 (SW480, expressing EGFR).

Regarding epidermal growth factor [EGFR], in test [1], the “Expression of EphA1 (EPHA1) stimulated” value is reported as “Expression stimulated 2 fold by”. In test [2], the “Expression of 3-hydroxy-3-methylglutaryl-Coenzyme A synthase 2 stimulated” value is “Expression stimulated 3 fold by”; the “Expression of BTG family, member 2 (BTG2) stimulated” value was “Expression stimulated 2 fold by”; the “Expression of cystic fibrosis transmembrane conductance regulator (CFTR) stimulated” value was “Expression stimulated 2 fold by”; the “Expression of prostaglandin G/H synthase and cyclooxygenase stimulated” value is recorded as “Expression stimulated 6 fold by”. Moreover, the “Expression of serine (or cysteine) proteinase inhibitor, clade B (ovalbumin), member 5 (SERPINB5) stimulated” value in [2] is on record as “Expression stimulated 2 fold by”.
